# Read-outs that look alike come from different tables or passages of the source.
# How the values were obtained:
# [1] = system: α-D-glucosidase (human lysosome); assay: Glycosidase inhibition (Table 2 panel); assay type: biochemical; settings: at 100 μM
# [2] = system: T1, α-L-fucosidase (bovine kidney); assay: Glycosidase inhibition (Table 2 panel); assay type: biochemical; settings: at 1000 μM
# T1 construct: purchased Sigma-Aldrich; host or cells: bovine kidney
# Summary of the method: (§1)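 Commercial enzymes assayed with para-nitrophenyl glycoside substrate […] at each enzyme's optimum pH, reaction stopped with Na2CO3 […]. Released para-nitrophenol read at 400 nm; […].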
# [3] = target: T2, β-D-galactosidase (bovine liver) (Bos taurus, UniProt F1MNT6); assay: Glycosidase inhibition (Table 2 panel); assay type: biochemical
# T2 sequence (F1MNT6 1-469): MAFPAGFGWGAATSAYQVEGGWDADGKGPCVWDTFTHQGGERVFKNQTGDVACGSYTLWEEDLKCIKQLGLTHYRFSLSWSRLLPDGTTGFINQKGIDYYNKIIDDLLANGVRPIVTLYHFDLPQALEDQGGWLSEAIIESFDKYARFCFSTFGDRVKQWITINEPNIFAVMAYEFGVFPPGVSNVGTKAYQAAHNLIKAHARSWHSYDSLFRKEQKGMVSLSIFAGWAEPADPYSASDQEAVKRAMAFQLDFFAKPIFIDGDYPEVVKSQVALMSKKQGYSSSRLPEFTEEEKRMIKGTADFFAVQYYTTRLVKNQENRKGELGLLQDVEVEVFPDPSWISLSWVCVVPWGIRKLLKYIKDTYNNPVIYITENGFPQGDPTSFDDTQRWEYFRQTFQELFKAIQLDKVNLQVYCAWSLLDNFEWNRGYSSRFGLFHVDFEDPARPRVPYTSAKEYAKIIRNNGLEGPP
# Summary of the method: as §1
# [4] = system: β-D-galactosidase (E. coli); assay: Glycosidase inhibition (Table 2 panel); assay type: biochemical; settings: at 100 μM
# [5] = system: β-D-glucanase (T. Longibrachiatum); assay: Glycosidase inhibition (Table 2 panel); assay type: biochemical; settings: at 100 μM
# [6] = system: β-D-glucosidase (almond); assay: Glycosidase inhibition (Table 3 panel); assay type: biochemical; settings: 1 mg/mL aqueous solution; run in water
# Description: (§2) All enzymes and para-nitrophenyl substrates were purchased from Sigma. Enzymes were assayed at 27 °C in citric acid (0.1 M)/disodium hydrogen phosphate (0.2 M) buffers at the optimum pH for the enzyme. The incubation mixture consisted of […] of 1 mg/mL aqueous solution of extract and […] of the appropriate […] para-nitrophenyl substrate made up in buffer at the optimum pH for the enzyme. The reactions were stopped by addition of […] 0.4 M glycine (pH 10.4) during the exponential phase of the reaction, which had been determined at the beginning using uninhibited assays in which water replaced the inhibitor. Final absorbances were read at 405 nm using a Versamax microplate reader (Molecular Devices, Wokingham, UK). Assays were carried out in triplicate, and the values given are means of the three replicates per assay. All reactions were run in water.
# [7] = system: β-D-glucuronidase (bovine liver); assay: Glycosidase inhibition (Table 3 panel); assay type: biochemical; settings: 1 mg/mL aqueous solution; run in water
# Description: as §2
# [8] = system: A2780 (ovarian carcinoma); assay: Cancer screening, MTT growth inhibition; assay type: cell-based; settings: for inhibition at 25 µM: A2780, 25 µM of drug, read-out: DOSE SCREEN percentage (%) cell growth inhibition A2780 Ovarian; for GI50: read-out: DOSE RESPONSE GI50 A2780 Ovarian
# Description: (§3) For Table 4, all test agents were prepared as stock solutions ([…]) in dimethyl sulfoxide (DMSO) and stored at −20 °C. Cell lines used in the study included HT29 (colorectal carcinoma), A2780 (ovarian carcinoma), H460 (lung carcinoma), A431 (skin carcinoma), MiaPaCa-2 (pancreatic carcinoma), and SMA560 (spontaneous murine astrocytoma), together with MCF10A (non-tumour derived normal breast cell line). Cell line sources: the HT29, H460, and MiaPaCa-2, together with MCF10A were purchased from ATCC. The A2780 and A431 were purchased from the European Collection of Cell Culture (ECACC). All cell lines were incubated in a humidified atmosphere 5% CO2 at 37 °C. The cancer cell lines were maintained in Dulbecco’s modified Eagle’s medium (DMEM; Sigma, Truganina, Australia) supplemented with foetal bovine serum (10%), sodium pyruvate ([…]), penicillin (100 IUmL^−1), streptomycin (100 µg mL^−1), and L-glutamine ([…]).
# (§4) Growth inhibition was determined by plating cells in duplicate in medium (100 µL) at a density of 2500–4000 cells per well in 96-well plates. On day 0 (24 h after plating), when the cells are in logarithmic growth, medium (100 µL) with or without the test agent was added to each well. […] Each data point is the mean ± the standard error of the mean (SEM) calculated from three replicates which were performed on separate occasions and separate cell line passages.
# [9] = system: A431 (skin carcinoma); assay: Cancer screening, MTT growth inhibition; assay type: cell-based; settings: for inhibition at 25 µM: A-431, 25 µM of drug, read-out: DOSE SCREEN percentage (%) cell growth inhibition A431 Skin; for GI50: read-out: DOSE RESPONSE GI50 A431 Skin
# Description: as §3, §4
# [10] = system: H460 (lung carcinoma); assay: Cancer screening, MTT growth inhibition; assay type: cell-based; settings: for inhibition at 25 µM: NCI-H460, 25 µM of drug, read-out: DOSE SCREEN percentage (%) cell growth inhibition H460 Lung; for GI50: read-out: DOSE RESPONSE GI50 H460 Lung
# Description: as §3, §4
# [11] = system: HT29 (colorectal carcinoma); assay: Cancer screening, MTT growth inhibition; assay type: cell-based; settings: for inhibition at 25 µM: HT-29, 25 µM of drug, read-out: DOSE SCREEN percentage (%) cell growth inhibition HT29 Colon; for GI50: read-out: DOSE RESPONSE GI50 HT29 Colon
# Description: as §3, §4
# [12] = system: MIA-Pa-Ca2 (pancreatic carcinoma); assay: Cancer screening, MTT growth inhibition; assay type: cell-based; settings: for inhibition at 25 µM: MIA PaCa-2, 25 µM of drug, read-out: DOSE SCREEN percentage (%) cell growth inhibition MIA-Pa-Ca2 Pancreatic; for GI50: read-out: DOSE RESPONSE GI50 MIA-Pa-Ca2 Pancreatic
# Description: as §3, §4
Compound,inhibition % α-D-Glucosidase Human Lysosome [1],inhibition % α-L-Fucosidase Bovine Kidney [2],inhibition at 100 µM ([3]; at 100 μM),inhibition % β-D-Galactosidase E. coli [4],inhibition % β-D-Glucanase T. Longibrachiatum [5],Percentage inhibition β-D-Glucosidase Almond [6],Percentage inhibition β-D-Glucuronidase Bovine Liver [7],"inhibition at 25 µM ([8]; Homo sapiens, 72 h)","GI50 ([8]; Homo sapiens, A2780, 72 h)","inhibition at 25 µM ([9]; Homo sapiens, 72 h)","GI50 ([9]; Homo sapiens, A-431, 72 h)","inhibition at 25 µM ([10]; Homo sapiens, 72 h)","GI50 ([10]; Homo sapiens, NCI-H460, 72 h)","inhibition at 25 µM ([11]; Homo sapiens, 72 h)","GI50 ([11]; Homo sapiens, HT-29, 72 h)","inhibition at 25 µM ([12]; Homo sapiens, 72 h)","GI50 ([12]; Homo sapiens, MIA PaCa-2, 72 h)",other results
"OC[C@H](O)[C@@H]1[C@H](O)[C@H](O)CN1Cc1cccc(B(O)O)c1 [meta 4, N-(3-Methylphenylboronic acid)-1,4-dideoxy-1,4-imino-L-gulitol]",^cNI ^d(7.2%),^aNI ^b(3.0%),24.6%,^cNI ^d(4.9%),^cNI ^d(1.2%),47.9%,−2.7%,18 ± 5%,> 50 µM,6 ± 1%,> 50 µM,7 ± 1%,> 50 µM,< 0%,> 50 µM,16 ± 5%,> 50 µM,–
"CC1(C)O[C@H]2O[C@H]3[C@@H]([C@H]2O1)N(Cc1ccccc1B1OC(C)(C)C(C)(C)O1)C[C@H]3O [ortho 2, N-(2-Methylphenylboronic acid pinacol ester)-3,6-dideoxy-3,6-imino-1,2-O-isopropylidene-α-D-gulofuranose]",^cNI ^d(3.3%),^aNI ^b(7.8%),–,^cNI ^d(8.8%),^cNI ^d(21%),73.3%,−1.8%,7 ± 2%,> 50 µM,10 ± 5%,> 50 µM,11 ± 4%,> 50 µM,7%,> 50 µM,9 ± 7%,> 50 µM,inhibition at 1000 µM ([3]; at 1000 μM): 21.8%
"OC[C@H](O)[C@@H]1[C@H](O)[C@H](O)CN1Cc1ccccc1B(O)O [ortho 4, N-(2-Methylphenylboronic acid)-1,4-dideoxy-1,4-imino-L-gulitol]",^cNI ^d(2.2%),^aNI ^b(1.3%),3.3%,^cNI ^d(14%),^cNI ^d(0%),49.8%,2.2%,16 ± 8%,> 50 µM,17 ± 2%,> 50 µM,8 ± 2%,> 50 µM,< 0%,> 50 µM,7 ± 2%,> 50 µM,–
"N-(3-Hydroxyphenyl)-1,4-dideoxy-1,4-imino-L-gulitol [meta 7]",^cNI ^d(0%),^aNI ^b(2.1%),–,^cNI ^d(0%),^cNI ^d(0%),2.9%,−3%,–,–,–,–,–,–,–,–,–,–,"inhibition % β-D-Galactosidase Bovine Liver ([3]; at 100 μM): ^cNI ^d(17.5%); inhibition % β-D-Galactosidase Bovine Liver ([3]; at 1000 μM): ^aNI ^b(8.1%); DOSE SCREEN percentage (%) cell growth inhibition A2780 Ovarian ([8]; 25 µM of drug, 72 h): 48 ± 7%; GI50 ([8]; 72 h): 30 ± 20 µM; DOSE SCREEN percentage (%) cell growth inhibition A431 Skin ([9]; 25 µM of drug, 72 h): 56 ± 6%; GI50 ([9]; 72 h): 17 ± 8.5 µM; DOSE SCREEN percentage (%) cell growth inhibition H460 Lung ([10]; 25 µM of drug, 72 h): 37 ± 3%; GI50 ([10]; 72 h): 47 ± 7 µM; DOSE SCREEN percentage (%) cell growth inhibition HT29 Colon ([11]; 25 µM of drug, 72 h): 29 ± 1%; GI50 ([11]; 72 h): 50 µM; DOSE SCREEN percentage (%) cell growth inhibition MIA-Pa-Ca2 Pancreatic ([12]; 25 µM of drug, 72 h): 39 ± 2%; GI50 ([12]; 72 h): 51 ± 1.5 µM"

# — article PMC12655172, “Borylated 5-Membered Ring Iminosugars: Synthesis and Biological Evaluation for Glycosidase Inhibition and Anticancer Properties for Application in Boron Neutron Capture Therapy (BNCT)—Part 2” (Pharmaceuticals, 2025)
